Results from publication PMC4679714, “Influence of a novel, versatile bifunctional chelator on theranostic properties of a minigastrin analogue” (EJNMMI Research, 2015).
Square brackets hold non-standard residues; d marks the D form. Peptide text beside a SMILES is read from it. * marks the point of attachment. X1 = O=C(O)CN1CCN(CC(=O)O)CC(CCCCCCCCCC(=O)*)(N(CC(=O)O)CC(=O)O)C1

Legend:
[1] = design: method as in doi:10.1002/ejic.201201108; settings: cited from earlier work
human CCK2 receptor = biological target: T1, human CCK2 receptor (Homo sapiens, UniProt P32239); experiment: Receptor binding affinity (IC50), displacement of 177Lu-labelled CP04 from CCK2+ cell membranes; settings: radioligand 177Lu-labelled CP04, 1 h at 37 °C
T1 construct: expressed in transfected cells; host or cells: A431-309CCK2R (A431 cells transfected with CCK2R); membranes released by hypoosmotic lysis
T1 sequence (P32239 1-447): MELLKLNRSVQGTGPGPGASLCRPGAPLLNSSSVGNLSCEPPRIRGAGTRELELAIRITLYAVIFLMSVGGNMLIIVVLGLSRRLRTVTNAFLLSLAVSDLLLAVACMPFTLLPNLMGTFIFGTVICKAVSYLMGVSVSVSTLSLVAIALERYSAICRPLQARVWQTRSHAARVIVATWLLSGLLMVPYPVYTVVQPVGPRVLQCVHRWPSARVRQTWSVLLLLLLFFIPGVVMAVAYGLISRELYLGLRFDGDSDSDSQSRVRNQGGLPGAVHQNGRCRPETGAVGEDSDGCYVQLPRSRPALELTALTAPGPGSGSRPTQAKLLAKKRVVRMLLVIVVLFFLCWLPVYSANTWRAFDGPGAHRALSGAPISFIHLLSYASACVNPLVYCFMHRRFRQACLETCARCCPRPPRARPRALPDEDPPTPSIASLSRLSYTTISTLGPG
Description: A human transfected cell line was used with two different expression properties of the cholecystokinin (CCK) receptor: CCK2+ (A431-309CCK2R; receptor-positive cells) and CCK2− (A431-609; mock transfected control cells) cells.
In vitro binding affinities of AAZTA-MG were determined by using CCK2+ cell membranes and ^177Lu-labelled CP04 (a minigastrin analogue with high affinity to the CCK2 receptor) as radioligand incubated with increasing concentrations of the competitor. As competitor AAZTA-MG and [^natLu]- and [^natGa]-AAZTA-MG were used. The latter were prepared by incubating 10 μg AAZTA-MG with a tenfold molar excess of Lu-chloride in ascorbic acid buffer and 100 μl Ga-bromide in sodium acetate buffer for 10 min, respectively.
The 96-well plates (MulitScreen Filter Plates, HTS) were washed with 250 μL 10 mM TRIS buffered saline (pH 7.3). CCK2 cells were diluted in 20 mM HEPES buffer containing […] MgCl2—in this hypoosmotic solution the cells were cracked releasing free membranes.

| Structure (SMILES) | Stability constant (logK) for Ga^3+ [1] | Stability constant (logK) for In^3+ [1] | further results |
| --- | --- | --- | --- |
| CC1(N(CC(=O)O)CC(=O)O)CN(CC(=O)O)CCN(CC(=O)O)C1 [AAZTA, 6-[Bis(carboxymethyl)amino]-1,4-bis(carboxymethyl)-6-methyl-1,4-diazepane] | 22.18 | 29.58 |  |
| CSCC[C@H](NC(=O)[C@H](Cc1c[nH]c2ccccc12)NC(=O)CNC(=O)[C@H](Cc1ccc(O)cc1)NC(=O)[C@H](C)NC(=O)[C@@H](CCC(=O)O)NC(=O)CCCCCCCCCC1(N(CC(=O)O)CC(=O)O)CN(CC(=O)O)CCN(CC(=O)O)C1)C(=O)N[C@@H](CC(=O)O)C(=O)N[C@@H](Cc1ccccc1)C(N)=O [AAZTA-MG, [AAZTA^0, D-Glu^1, desGlu^2–6]-minigastrin] (X1-[dE]AYGWMDF-NH2) |  |  | IC50 (human CCK2 receptor): 10 nM |
| CSCC[C@H](NC(=O)[C@H](Cc1c[nH]c2ccccc12)NC(=O)CNC(=O)[C@H](Cc1ccc(O)cc1)NC(=O)[C@H](C)NC(=O)[C@@H](CCC(=O)O)NC(=O)CCCCCCCCCC1(N(CC(=O)O)CC(=O)O)CN(CC(=O)O)CCN(CC(=O)O)C1)C(=O)N[C@@H](CC(=O)O)C(=O)N[C@@H](Cc1ccccc1)C(N)=O [[^natGa]AAZTA-MG, metal not drawn] (X1-[dE]AYGWMDF-NH2) |  |  | IC50 (human CCK2 receptor; listed as [^natGa]-AAZTA-MG): 8.18 ± 3.16 nM |
| CSCC[C@H](NC(=O)[C@H](Cc1c[nH]c2ccccc12)NC(=O)CNC(=O)[C@H](Cc1ccc(O)cc1)NC(=O)[C@H](C)NC(=O)[C@@H](CCC(=O)O)NC(=O)CCCCCCCCCC1(N(CC(=O)O)CC(=O)O)CN(CC(=O)O)CCN(CC(=O)O)C1)C(=O)N[C@@H](CC(=O)O)C(=O)N[C@@H](Cc1ccccc1)C(N)=O [[^natLu]AAZTA-MG, metal not drawn] (X1-[dE]AYGWMDF-NH2) |  |  | IC50 (human CCK2 receptor; listed as [^natLu]): 9.44 ± 4.57 nM |
| O=C(O)CN1CCN(CC(=O)O)CCN(CC(=O)O)CCN(CC(=O)O)CC1 [^68Ga-DOTA, 1,4,7,10-tetraazacyclododecane-1,4,7,10-tetraacetic acid, metal not drawn] | 21.3 | 23.9 |  |
